Measurements published in ChEMBL document CHEMBL4402530, “New dimensions in the field of antimalarial research against malaria resurgence” (Eur J Med Chem, 2019).
pEC50, pIC50: −log10 of the molar value.

Tests used:
Plasmodium falciparum [1] = assay: Antiparasitic activity against Plasmodium falciparum 3D7; format: functional, organism-based
Plasmodium falciparum [2] = assay: Antiparasitic activity against Plasmodium falciparum; format: functional, organism-based
Plasmodium falciparum [3] = assay: Antiparasitic activity against Plasmodium falciparum infected in mouse; format: functional
Plasmodium falciparum [4] = assay: Antiparasitic activity against Plasmodium falciparum D6; format: functional, organism-based
Plasmodium falciparum [5] = assay: Antiparasitic activity against Plasmodium falciparum infected in SCID mouse; format: functional
Plasmodium falciparum [6] = assay: Antiparasitic activity against Plasmodium falciparum infected in human PBMC; format: functional, organism-based
Plasmodium falciparum [7] = assay: Antiparasitic activity against Plasmodium falciparum W2; format: functional, organism-based
Plasmodium falciparum [8] = assay: Antiparasitic activity against Plasmodium falciparum TM91C235; format: functional, organism-based
Plasmodium falciparum [9] = assay: Antiparasitic activity against Plasmodium falciparum infected in human HepG2 cells; format: functional, organism-based
Plasmodium falciparum [10] = assay: Antiparasitic activity against Plasmodium falciparum […]; format: functional, organism-based
[11] = Selectivity index, ratio of IC50 for African green Monkey BGM cells to IC50 for chloroquine-resistant Plasmodium falciparum W2; format: toxicity; conditions: read-out: Selectivity Index
Plasmodium falciparum [12] = assay: Antiparasitic activity against chloroquine-resistant Plasmodium falciparum Dd2; format: functional, organism-based

SMILES: COc1cc2[nH]c(C)c(-c3ccc(Oc4ccc(OC(F)(F)F)cc4)cc3)c(=O)c2cc1Cl
- pEC50 (Plasmodium falciparum [1]; Plasmodium falciparum, 3D7): 7.87 to 8.89
- pEC50 (Plasmodium falciparum [2]): 9.24
- ED50 (Plasmodium falciparum [3]): 0.016 mg/kg
- pEC50 (Plasmodium falciparum [4]): 7.87 to 8.89
- ED50 (Plasmodium falciparum [5]): 6 mg/kg
- pEC50 (Plasmodium falciparum [6]): 7.87 to 8.89

SMILES: CC(=O)O[C@@H]1CC[C@@]2(C)[C@@H](C1)C[C@@H](OC(C)=O)[C@@H]1[C@@H]2C[C@H](OC(C)=O)[C@]2(C)[C@@H]([C@H](C)CCCNCCCNc3ccnc4cc(Cl)ccc34)CC[C@@H]12
- pIC50 (Plasmodium falciparum [7]; Plasmodium falciparum, W2): 7.86 to 8.58

SMILES: CC(=O)O[C@H]1C[C@H]2[C@@H]([C@H](OC(C)=O)C[C@@H]3C[C@H](O)CC[C@@]32C)[C@@H]2CC[C@H]([C@H](C)CCCNCCNc3ccnc4cc(Cl)ccc34)[C@@]12C
- pIC50 (Plasmodium falciparum [7]; Plasmodium falciparum, W2): 7.86 to 8.58
- pIC50 (Plasmodium falciparum [4]): 7.85 to 8.87

SMILES: CC(=O)O[C@H]1C[C@H]2[C@@H]([C@H](OC(C)=O)C[C@@H]3CC(=O)CC[C@@]32C)[C@@H]2CC[C@H]([C@H](C)CCCNCCNc3ccnc4cc(Cl)ccc34)[C@@]12C
- pIC50 (Plasmodium falciparum [7]; Plasmodium falciparum, W2): 7.86 to 8.58
- pIC50 (Plasmodium falciparum [4]): 7.85 to 8.87

SMILES: CC(=O)O[C@H]1C[C@H]2[C@@H]([C@H](OC(C)=O)C[C@@H]3CC(=O)CC[C@@]32C)[C@@H]2CC[C@H]([C@H](C)CCCNCCCNc3ccnc4cc(Cl)ccc34)[C@@]12C
- pIC50 (Plasmodium falciparum [7]; Plasmodium falciparum, W2): 7.86 to 8.58
- pIC50 (Plasmodium falciparum [4]): 7.85 to 8.87

SMILES: CC(=O)O[C@@H]1CC[C@@]2(C)[C@@H](C1)C[C@@H](OC(C)=O)[C@@H]1[C@@H]2C[C@H](OC(C)=O)[C@]2(C)[C@@H]([C@H](C)CCCN(C)CCCNc3ccnc4cc(Cl)ccc34)CC[C@@H]12
- pIC50 (Plasmodium falciparum [7]; Plasmodium falciparum, W2): 7.86 to 8.58

SMILES: CC(=O)O[C@H]1C[C@H]2[C@@H]([C@H](OC(C)=O)C[C@@H]3C[C@H](NC(=O)OC(C)(C)C)CC[C@@]32C)[C@@H]2CC[C@H]([C@H](C)CCCNCCNc3ccnc4cc(Cl)ccc34)[C@@]12C
- pIC50 (Plasmodium falciparum [4]): 7.85 to 8.87

SMILES: CC(=O)O[C@H]1C[C@H]2[C@@H]([C@H](OC(C)=O)C[C@@H]3C[C@H](NS(C)(=O)=O)CC[C@@]32C)[C@@H]2CC[C@H]([C@H](C)CCCN(C)CCNc3ccnc4cc(Cl)ccc34)[C@@]12C
- pIC50 (Plasmodium falciparum [7]; Plasmodium falciparum, W2): 7.86 to 8.58
- pIC50 (Plasmodium falciparum [4]): 7.85 to 8.87

SMILES: CC(=O)O[C@H]1C[C@H]2[C@@H]([C@H](OC(C)=O)C[C@@H]3C[C@H](NC(=O)OC(C)(C)C)CC[C@@]32C)[C@@H]2CC[C@H]([C@H](C)CCCN(C)CCNc3ccnc4cc(Cl)ccc34)[C@@]12C
- pIC50 (Plasmodium falciparum [7]; Plasmodium falciparum, W2): 7.86 to 8.58

SMILES: CC(=O)O[C@H]1C[C@H]2[C@@H]([C@H](OC(C)=O)C[C@@H]3C[C@H](N)CC[C@@]32C)[C@@H]2CC[C@H]([C@H](C)CCCN(C)CCNc3ccnc4cc(Cl)ccc34)[C@@]12C
- pIC50 (Plasmodium falciparum [8]): 8.04
- pIC50 (Plasmodium falciparum [9]): < 6.00
- pIC50 (Plasmodium falciparum [7]; Plasmodium falciparum, W2): 8.43
- pIC50 (Plasmodium falciparum [4]): 8.35
- pIC50 (Plasmodium falciparum [6]): < 6.00
- pIC50 (Plasmodium falciparum [10]): 5.94

SMILES: CC(=O)O[C@H]1C[C@H]2[C@@H]([C@H](OC(C)=O)C[C@@H]3C[C@H](N(C)C)CC[C@@]32C)[C@@H]2CC[C@H]([C@H](C)CCCN(C)CCNc3ccnc4cc(Cl)ccc34)[C@@]12C
- pIC50 (Plasmodium falciparum [8]): 8.48
- pIC50 (Plasmodium falciparum [4]): 8.58
- pIC50 (Plasmodium falciparum [10]): 5.64

SMILES: COc1cc2[nH]c(C)c(-c3ccc(Oc4ccc(OC(F)(F)F)cc4)cc3F)c(=O)c2cc1Cl
- pEC50 (Plasmodium falciparum [1]; Plasmodium falciparum, 3D7): 7.49 to 8.50
- pEC50 (Plasmodium falciparum [2]): 8.97
- ED50 (Plasmodium falciparum [3]): 0.3 mg/kg
- pEC50 (Plasmodium falciparum [4]): 7.49 to 8.50
- pEC50 (Plasmodium falciparum [6]): 7.49 to 8.50

SMILES: O=Cc1cn(-c2ccnc3cc(Cl)ccc23)nn1
- selectivity ratio [11]: 351

SMILES: NS(=O)(=O)c1cccc(-n2cc(CCNc3ccnc4cc(Cl)ccc34)nn2)c1
- pIC50 (Plasmodium falciparum [1]; Plasmodium falciparum, 3D7): 6.22
- pIC50 (Plasmodium falciparum [12]): 6.22

SMILES: CC(C)=CC(=O)O[C@@H]1C[C@@]2(C)[C@@H](C=C1C)O[C@@H]1[C@H](O)[C@@H](O)[C@@]2(C)[C@]12CO2
- pIC50 (Plasmodium falciparum [7]): 6.43
- pIC50 (Plasmodium falciparum [1]): 7.54
